Assay results taken from patent publication US20070128217A1 (priority 2003, published 2007).

How the values were obtained:
[1] = test system: control sera (pooled serum of ten healthy LUMC hospital workers; commercial negative donor pooled serum from the Dutch bloodbank); type: binding, human; design: Binding of Control serum LUMC to linear peptides / Binding of Control serum Blood-bank to linear peptides / Binding of Control serum LUMC to looped peptides / Binding of Control Serum Blood-Bank to Looped peptides / Binding of Control serum LUMC to linear peptides of the protein M of SARS-CoV Urbani / Binding of Control serum Blood-bank to linear peptides of the protein M of SARS-CoV Urbani / Binding of Control serum LUMC to looped peptides of the protein M of SARS-CoV Urbani / Binding of Control Serum Blood-Bank to Looped peptides of the protein M of SARS-CoV Urbani: unit not given here
[2] = test system: rabbit serum obtained by immunizing a rabbit with the SARS-CoV strain Frankfurt 1; type: binding; design: Binding of a rabbit serum to linear peptides / Binding of a rabbit serum to looped peptides / Rabbit serum linear peptides / Rabbit serum looped peptides / Binding of a rabbit serum to linear peptides of protein N of SARS-CoV Urbani (Rabbit serum linear peptides) / Binding of a rabbit serum to looped/cyclic peptides of protein N of SARS-CoV Urbani (Rabbit serum looped peptides): unit not given here

Sequence	Binding of Control Serum Blood-Bank to Looped peptides [1]	Binding of Control serum Blood-bank to linear peptides [1]	Binding of Control serum LUMC to linear peptides [1]	Binding of Control serum LUMC to looped peptides [1]	Binding of a rabbit serum to linear peptides [2]	Binding of a rabbit serum to looped peptides [2]	Rabbit serum linear peptides [2]	Rabbit serum looped peptides [2]	also measured
QNSKKTTKLVVILRI	0.7	0.5	0.8	0.7					Recognition of the peptide by the rabbit serum [2]: recognized
QPVKIDNASPASTVH	0.6	0.6	0.6	0.6	0.1	0.4			
RFFTLGSITAQPVKI	0.8	1.0	1.1	0.7	1.7	0.5			
RGTTVLLKEPCPSGT	0.9	0.9	0.8	0.8			0.4	0.5	
RMAGHPLGRCDIKDL							0.1	0.6	Binding of Control Serum Blood-Bank to Looped peptides of the protein M of SARS-CoV Urbani [1]: 0.9; Binding of Control serum Blood-bank to linear peptides of the protein M of SARS-CoV Urbani [1]: 0.7; Binding of Control serum LUMC to linear peptides of the protein M of SARS-CoV Urbani [1]: 0.7; Binding of Control serum LUMC to looped peptides of the protein M of SARS-CoV Urbani [1]: 0.8
RTFRIAIWNLDVIIS							0.3	0.4	Binding of Control Serum Blood-Bank to Looped peptides of the protein X3 of SARS-CoV Urbani [1]: 0.9; Binding of Control serum Blood-bank to linear peptides of the protein X3 of SARS-CoV Urbani [1]: 0.7; Binding of Control serum LUMC to linear peptides of the protein X3 of SARS-CoV Urbani [1]: 0.6; Binding of Control serum LUMC to looped peptides of the protein X3 of SARS-CoV Urbani [1]: 0.8
RWHTMVQTCTPNVTI	0.9	0.9	0.6	0.9			0.5	0.6	
SEDRHSGVKDYVVVH	0.5	1.0	0.8	0.5	0.1	0.4			
SGTYEGNSPFHPLAD	0.8	0.8	0.8	0.8			0.6	0.6	
SGVANPAMDPIYDEP	0.5	0.4	0.3	0.5	1.1	0.6			
SGVKDYVVVHGYFTE	0.2	0.5	0.6	0.5	0.1	0.7			
SITAQPVKIDNASPA	0.4	0.6	0.6	0.4	0.1	0.4			
SKKTTKLVVILRIGT	0.7	0.6	0.8	0.7					Recognition of the peptide by the rabbit serum [2]: recognized
SRVKNLNSSEGVPDL	0.5	0.9	0.7	0.7	0.7	0.0			
STPKLKEDYQIGGYS	0.2	0.7	0.7	0.3	0.1	0.3			
TDHAGSNDNIALLVQ							0.1	0.2	Binding of Control Serum Blood-Bank to Looped peptides of the protein M of SARS-CoV Urbani [1]: 1.0; Binding of Control serum Blood-bank to linear peptides of the protein M of SARS-CoV Urbani [1]: 0.7; Binding of Control serum LUMC to linear peptides of the protein M of SARS-CoV Urbani [1]: 1.0; Binding of Control serum LUMC to looped peptides of the protein M of SARS-CoV Urbani [1]: 1.0

Sequence	Binding of Control Serum Blood-Bank to Looped peptides [1]	Binding of Control serum Blood-bank to linear peptides [1]	Binding of Control serum LUMC to linear peptides [1]	Binding of Control serum LUMC to looped peptides [1]	Binding of a rabbit serum to linear peptides [2]	Binding of a rabbit serum to looped peptides [2]	Rabbit serum linear peptides [2]	Rabbit serum looped peptides [2]	also measured
TFFIFNKLVKDPPNV	0.6	0.7	0.6	0.6	0.1	0.5			
TINCQDPAGGALIAR	1.3	1.0	0.6	1.0			0.6	0.7	
TMVQTCTPNVTINCQ	0.9	0.7	0.7	0.7			0.5	0.4	
TTVLLKEPCPSGTYE	0.9	0.9	0.9	1.0			0.4	0.5	
TVLLKEPCPSGTYEG	0.7	0.7	0.8	0.8			0.2	0.2	
VKDPPNVQIHTIDGS	0.5	0.4	0.4	0.6	0.1	0.5			
VKIDNASPASTVHAT	0.5	0.7	0.7	0.6	0.2	0.3			
VLKTMSLYMAISPKF	0.7	0.9	0.5	0.6	0.3	0.5			
VRGTTVLLKEPCPSG	0.8	0.8	1.0	0.9			0.4	0.4	
VRQLFKPLTKKNYSE							0.4	2.2	Binding of Control Serum Blood-Bank to Looped peptides of the protein X3 of SARS-CoV Urbani [1]: 0.9; Binding of Control serum Blood-bank to linear peptides of the protein X3 of SARS-CoV Urbani [1]: 0.9; Binding of Control serum LUMC to linear peptides of the protein X3 of SARS-CoV Urbani [1]: 0.7; Binding of Control serum LUMC to looped peptides of the protein X3 of SARS-CoV Urbani [1]: 0.7
VTGGIAIAMACIVGL							0.3	0.4	Binding of Control Serum Blood-Bank to Looped peptides of the protein M of SARS-CoV Urbani [1]: 0.7; Binding of Control serum Blood-bank to linear peptides of the protein M of SARS-CoV Urbani [1]: 1.1; Binding of Control serum LUMC to linear peptides of the protein M of SARS-CoV Urbani [1]: 1.3; Binding of Control serum LUMC to looped peptides of the protein M of SARS-CoV Urbani [1]: 0.8
VTINCQDPAGGALIA	0.5	0.8	0.6	0.5			0.5	0.0	
WVTGGIAIAMACIVG							0.4	0.2	Binding of Control Serum Blood-Bank to Looped peptides of the protein M of SARS-CoV Urbani [1]: 0.8; Binding of Control serum Blood-bank to linear peptides of the protein M of SARS-CoV Urbani [1]: 0.8; Binding of Control serum LUMC to linear peptides of the protein M of SARS-CoV Urbani [1]: 0.4; Binding of Control serum LUMC to looped peptides of the protein M of SARS-CoV Urbani [1]: 0.9
YDANYFVCWHTHNYD	0.3	0.7	0.7	0.4	0.1	0.4			
YHYQECVRGTTVLLK	0.7	0.8	0.7	0.8			1.7	0.6	
